Experimental data from publication PMC11506924, “Triterpenoid Saponins and Flavonoid Glycosides from the Flower of Camellia flavida and Their Cytotoxic and α-Glycosidase Inhibitory Activities” (International Journal of Molecular Sciences, 2024).

Key:
[1] = system: Hela; assay: MTT cytotoxicity assay, Hela; format: cell-based; details: Homo sapiens, 24 h exposure, ± SD, n = 8
Text: (§1) The human cervical cancer cell line Hela, the human lung adenocarcinoma cell line A549, the human breast cancer cell lines MCF-7 and MDA-MB-231, the human hepatoma cell lines BEL-7402 and Hep G2, the human embryonic lung fibroblast cell line MRC-5, and the human nasal epithelial cell line HNEpC were all sourced from the China Center for Type Culture Collection (CCTCC, Wuhan University, Hubei, China). Hela, A549, MCF-7, MDA-MB-231, BEL-7402, MRC-5, and Hep G2 cells were maintained in DMEM media, while HNEpC cells were cultured in RPMI 1640. All media were supplemented with 10% FBS (v/v) and 1% penicillin-streptomycin, and cells were grown in a humidified atmosphere containing 5% CO2 at 37 °C.
(§2) The MTT assay was conducted to assess cell viability, as previously described. Cells were seeded onto 96-well plates at a density of 1 × 10^4 cells per well, with each experiment replicated eight times to ensure reproducibility. […] Subsequently, 10 μL MTT reagent was added to each well, and the plates were incubated for a further 4 h at 37 °C, adhering strictly to the manufacturer’s instructions. The optical density (OD) values were then measured at 570 nm using a microplate reader. The cell survival rate for each compound was calculated employing the following formula: OD value of the experimental group−OD value of the blank group/OD value of the control group−OD value of Blank group×100%
(§3) Statistical analysis data from the cytotoxicity and α-glycosidase inhibitory assays were analyzed using the mean and standard deviation. The 50% cytotoxic and inhibitory concentrations were calculated and compared to the control via non-linear regression. These analyses were performed using SPSS® Statistics (Version 18.0, IBM Software, Armonk, NY, USA).

[2] = system: MCF-7; assay: MTT cytotoxicity assay, MCF-7; format: cell-based; details: Homo sapiens, MCF7, 24 h exposure, ± SD, n = 8
Text: as §1
(§4) The MTT assay was conducted to assess cell viability, as previously described. Cells were seeded onto 96-well plates at a density of 1 × 10^4 cells per well, with each experiment replicated eight times to ensure reproducibility. Following incubation at 37 °C for 24 h, cells were exposed to various concentrations (0.25, 0.5, 1.0, 2.0, 4.0, 8.0, 16.0, 32.0 µM) of compounds 1–10 for 24 h. Subsequently, 10 μL MTT reagent was added to each well, and the plates were incubated for a further 4 h at 37 °C, adhering strictly to the manufacturer’s instructions. The optical density (OD) values were then measured at 570 nm using a microplate reader. The cell survival rate for each compound was calculated employing the following formula: OD value of the experimental group−OD value of the blank group/OD value of the control group−OD value of Blank group×100%
as §3

[3] = system: BEL-7402; assay: MTT cytotoxicity assay, BEL-7402; format: cell-based; details: Homo sapiens, 24 h exposure, ± SD, n = 8
Text: as §1, §2, §3

[4] = system: A549; assay: MTT cytotoxicity assay, A549; format: cell-based; details: Homo sapiens, 24 h exposure, ± SD, n = 8
Text: as §1, §2, §3

[5] = system: Hep G2; assay: MTT cytotoxicity assay, Hep G2; format: cell-based; details: Homo sapiens, HepG2, 24 h exposure, ± SD, n = 8
Text: as §1, §2, §3

[6] = system: MDA-MB-231; assay: MTT cytotoxicity assay, MDA-MB-231; format: cell-based, human; details: for IC50: Homo sapiens, MDA-MB-231, MTT, 24 h exposure, ± SD, n = 8
Text: as §1, §2, §3

[7] = MTT cytotoxicity assay, MRC-5 (normal cells); format: cell-based; details: MRC-5 cells (normal embryonic lung fibroblasts), normal human embryonic lung fibroblast, 24 h exposure, n = 8
Text: as §1, §4, §3

[8] = MTT cytotoxicity assay, HNEpC (normal cells); format: cell-based; details: HNEpC cells (normal nasal epithelial cells), normal human nasal epithelial cells, 24 h exposure, n = 8
Text: as §1, §4, §3

| SMILES | IC50 [1] | IC50 [2] | IC50 [3] | IC50 [4] | IC50 [5] | IC50 [6] | inhibitory effect on MDA-MB-231 cells (in words) ([6]; compared with positive control) | IC50 at 24 h [7] | IC50 at 24 h [8] |
| --- | --- | --- | --- | --- | --- | --- | --- | --- | --- |
| CC1OC(OC2C(OC3C(O)C(C(=O)O)OC(OC4CCC5(C)C(CCC6(C)C5CC=C5C7CC(C)(C)CCC7(CO)C(=O)C(O)C56C)C4(C)C)C3OC3OC(CO)C(O)C(O)C3O)OC(CO)C(O)C2O)C(O)C(O)C1O [Compound 3, 3β,15α,28-trihydroxyolean-12-en-16-on-3-O-β-D-glucopyranosyl-(1→2)-[α-L-rhamnopyranosyl-(1→2)-β-D-galactopyranosyl-(1→3)]-β-D-glucuronopyranoside] | > 30 µM | 1.65 ± 0.39 µM | 4.94 ± 0.41 µM | 23.4 ± 7.26 µM | 8.77 ± 1.56 µM | 10.1 ± 2.28 µM | comparable to that of cisplatin | > 30 µM | > 30 µM |
| CC1OC(OC2C(OC3C(OC4C(=O)c5c(O)cc(O)cc5OC4c4ccc(O)cc4)OC(C)C(O)C3O)OC(CO)C(O)C2O)C(O)C(O)C1O [Compound 4, (2R,3R)-3,5,7,4′-tetrahydroxyflavanone-3-O-α-L-rhamnopyranosyl-(1→2)-β-D-glucopyranosyl-(1→2)-α-L-rhamnoside] | > 30 µM | > 30 µM | > 30 µM | > 30 µM | > 30 µM | > 30 µM | – | > 30 µM | > 30 µM |
| C[C@@H]1O[C@@H](OC[C@H]2O[C@@H](Oc3c(-c4ccc(O)c(O)c4)oc4cc(O)cc(O)c4c3=O)[C@H](OC(=O)/C=C/c3ccc(O)cc3)[C@@H](O[C@@H]3OC[C@H](O)[C@H](O)[C@H]3O)[C@@H]2O)[C@H](O)[C@H](O[C@@H]2OC[C@@H](O)[C@H](O)[C@H]2O)[C@H]1O [Compound 7, 3,5,7,3′,4′-pentahydroxyflavonol-3-O-α-L-arabinopyranosyl-(1→3)-[β-D-xylopyranosyl-(1→3)-α-L-rhamnopyranosyl-(1→6)]-2-O-p-E-coumaryl-β-D-glucopyranoside] | > 30 µM | > 30 µM | > 30 µM | > 30 µM | > 30 µM | > 30 µM | – | > 30 µM | > 30 µM |
| CC(=O)OC1C(C)OC(OC2C(OC3C(OC4C(=O)c5c(O)cc(O)cc5OC4c4ccc(O)cc4)OC(C)C(O)C3O)OC(CO)C(O)C2O)C(O)C1O [Compound 6, (2R,3R)-3,5,7,4′-tetrahydroxyflavanone-3-O-[4-acetyl-O-α-L-rhamnopyranosyl-(1→2)-β-D-glucopyranosyl-(1→2)]-α-L-rhamnoside] | > 30 µM | > 30 µM | 11.4 ± 3.11 µM | > 30 µM | > 30 µM | > 30 µM | – | > 30 µM | > 30 µM |
| COC(=O)C1OC(OC2CCC3(C)C(CCC4(C)C3CC=C3C5CC(C)(C)CCC5(CO)C(O)C(O)C34C)C2(C)C)C(OC2OC(CO)C(O)C(O)C2O)C(OC2OC(CO)C(O)C(O)C2OC2OC(C)C(O)C(O)C2O)C1O [Compound 1, 3β,15α,16α,28-tetrahydroxyolean-12-en-3-O-β-D-glucopyranosyl-(1→2)-[α-L-rhamnopyranosyl-(1→2)-β-D-galactopyranosyl-(1→3)]-β-D-glucuronopyranoside methyl ester] | 15.1 ± 1.06 µM | 9.06 ± 0.45 µM | 7.62 ± 1.06 µM | > 30 µM | 25.6 ± 3.46 µM | > 30 µM | – | > 30 µM | > 30 µM |
| CC1OC(OC2C(OC3C(O)C(C(=O)O)OC(OC4CCC5(C)C(CCC6(C)C5CC=C5C7CC(C)(C)CCC7(CO)C(O)C(O)C56C)C4(C)C)C3OC3OC(CO)C(O)C(O)C3O)OC(CO)C(O)C2O)C(O)C(O)C1O [Compound 2, 3β,15α,16α,28-tetrahydroxyolean-12-en-3-O-β-D-glucopyranosyl-(1→2)-[α-L-rhamnopyranosyl-(1→2)-β-D-galactopyranosyl-(1→3)]-β-D-glucuronopyranoside] | 4.17 ± 0.85 µM | 19.2 ± 3.71 µM | > 30 µM | > 30 µM | 14 ± 3.29 µM | 26.5 ± 3.07 µM | – | > 30 µM | > 30 µM |
| COc1cccc2c1C(=O)c1c(O)c3c(c(O)c1C2=O)C[C@@](O)(C(=O)CO)C[C@@H]3O[C@H]1C[C@H](N)[C@H](O)[C@H](C)O1 [doxorubicin, reference compound] | – | 3.79 ± 0.26 µM | – | – | – | – | – | – | – |
| CC(=O)OC1C(O)C(C)OC(OC2C(OC3C(OC4C(=O)c5c(O)cc(O)cc5OC4c4ccc(O)cc4)OC(C)C(O)C3O)OC(CO)C(O)C2O)C1O [Compound 5, (2R,3S)-3,5,7,4′-tetrahydroxyflavanone-3-O-[3-acetyl-O-α-L-rhamnopyranosyl-(1→2)-β-D-glucopyranosyl-(1→2)]-α-L-rhamnoside] | > 30 µM | > 30 µM | > 30 µM | > 30 µM | 20.8 ± 3.79 µM | > 30 µM | – | > 30 µM | > 30 µM |
